Patent US9127027B2, “Epoxyeicosatrienoic acid analogs and methods of making and using the same” (The Medical College of Wisconsin, Inc., priority 2011, dated 2015)
Read-outs that look alike come from different tables or passages of the source.

Assays:
bovine coronary artery = assay: Vasorelaxant activity in bovine coronary artery rings precontracted with U-46619; format: cell-based; settings: 10 μM
Experimental: Vasorelaxant activity was measured in bovine coronary artery. Bovine hearts were obtained and the left anterior descending coronary artery was dissected and cleaned of connective tissue. Vessels of 1 mm diameter were cut into rings of 3 mm width as previously described (3, 27, 39). […] The vessels were suspended from a pair of stainless steel hooks in a 6-ml water-jacketed organ chamber. […] One hook was anchored to a steel rod and the other hook to a force transducer (model FT-03C; Grass Instruments, West Warwick, R.I.). Tension of the vessel was measured by an ETH-400 bridge amplifier, and the data were acquired with a MacLab 8e analog-to-digital converter and MacLab software version 3.5.6 (AD Instruments, Milford, Mass.) and stored on a Macintosh computer for subsequent data analysis.
Basal tension was set at the length-tension maximum of 3.5 g and equilibrated for 1.5 h. KCl (40 mM) was added to the chamber until reproducible maximal contractions were maintained. […] Cumulative additions of compounds were added to the chamber. Between concentration-response curves, the chambers were rinsed with fresh Krebs buffer, 40 mM KCl was administered to determine the maximum contraction, and the vessels were rinsed. Consecutive concentration-response curves were performed with 14,15-EET followed by a concentration-response curve to a compound. The experiment was always repeated with the order of the agonists reversed. […] The relaxation was plotted versus compound concentration and the EC50 determined utilizing statistical software.

[1] = tested on: Spontaneously Hypertensive Rats (SHR); assay: Telemetry blood pressure and heart rate in spontaneously hypertensive rats; format: in vivo, rat
Text: (§1) Telemetry Blood Pressure Measurement. To accurately detect changes in blood pressure and heart rate, telemetry transmitters (Data Sciences Inc., St. Paul, Minn.) were implanted in rats one week prior to the experimental period according to manufacturer's specifications while under pentobarbital anesthesia. In brief, an incision was made to expose the femoral artery that was occluded to allow insertion of the transmitter catheter. The catheter was secured in place with tissue glue and the transmitter body was sutured in place and the incision line was closed. Rats were allowed to recover from surgery and were returned to individual housing. A baseline arterial pressure was recorded for prior to the experimental period. Mean arterial pressure was continuously recorded throughout the experimental period.
Telemetry transmitters were implanted into male SHR as described. After the surgical recovery period, baseline mean arterial pressure was recorded. In this series of experiments, EET analogs were administered by osmotic pump (2 mg/d, i.p.) and blood pressure was continuously monitored.

[2] = tested on: angiotensin II induced hypertensive rats; assay: Angiotensin II hypertension: telemetry blood pressure, heart rate, sodium and protein excretion; format: in vivo, rat; settings: Ang II hypertension
Text: as §1
Telemetry transmitters were implanted into male Sprague-Dawley rats (225-275 g) as described. After recording basal blood pressure, osmotic pumps were implanted (s.c.) to deliver angiotensin at a dose of 60 ng/min. EET analogs were administered by an osmotic pump (2 mg/d, i.p.) and blood pressure was continuously monitored.
Animals were placed in a metabolic cage and urine was collected in a conical tube. Samples were stored at −80° C. until assayed. Urinary protein excretion was assessed as an index for renal injury. Protein was determined by the Bradford colorimetric method and creatinine was determined by the picric acid colorimetric method.

[3] = tested on: Wistar-Kyoto (WKY) rats administered cisplatin; assay: Cisplatin-induced nephrotoxicity in rats pretreated with EET analogs; format: in vivo, rat; settings: for BUN: day 5 after cisplatin 7 mg/kg i.p., vehicle 241±51; for urinary NAG / plasma creatinine (PCr) / KIM-1 urinary excretion: day 5 after cisplatin; for urinary NAG: vehicle 3.0±0.6; for plasma creatinine (PCr): vehicle 3.1±0.2; for KIM-1 urinary excretion: vehicle 296±94; for cisplatin-induced proteinuria: vehicle 53±5; for reductions in renal mRNA expressions of inflammatory markers (TNF-α, IL-6, IL-1β) / reduction in elevated renal expressions of GRP78 and caspase 12 mRNAs: cisplatin-administered rats; for reduction in elevated renal expressions of GRP78 and caspase 12 mRNAs: vs vehicle treatment; for decrease in kidney expression of NOX1 and gp91phox mRNAs / reduction in urinary excretion of NAG and KIM-1 / reduction of cisplatin-induced proteinuria / reductions in elevated serum creatinine and BUN: vs vehicle-treated cisplatin rats
Text: Experiments were approved and carried out according to the guidelines of the Institutional Animal Care and Use Committee, Medical College of Wisconsin, Milwaukee, USA. Male Wistar-Kyoto (WKY) rats weighing 180-200 g (Charles River, Mass., USA). All animals were kept in a temperature-controlled environment with a 12-h light/dark cycle and were allowed free access to food and water at all times. An acclimatization period of 6 days was allowed for the rats before experimentation. The rats were assigned into four groups. Group 1 (WKY, n=5-7): Rats received drinking water ad libitum for seven days and on day 7 DMSO (Sigma Aldrich, St. Louis, Mo., USA) was administered (300-500 μl i.p). […] Group 2 (CP+Vehicle, n=5-7): Rats were pretreated with vehicle (0.05% ethanol and 0.1% PEG-400 v/v) in drinking water for seven days and then on day 7 CP was administered (7 mg/kg i.p.) followed by another five days treatment with vehicle. Group 3 (CP+EET-A, n=5-7): These rats are pretreated with the EET analog EET-A (10 mg/kg/day p.o.) for seven days in drinking water and then on day 7 administered CP as a single injection (7 mg/kg i.p.) followed by another five days treatment with EET-A. Group 4 (CP+EET-B, n=5-7): Rats of this group are pretreated with another EET analog EET-B (10 mg/kg/day) for 7 days in drinking water and then on day 7 CP was administered as a single injection (7 mg/kg i.p.) followed by another five days treatment with EET-B. Rats of groups 2, 3 and 4 had free access to vehicle, EET-A and -B in drinking water, respectively. One day before the rats were sacrificed, urine of each rat was collected over a 24-h period, and the volume was measured. Five days after CP or DMSO administration, rats were anesthetized for blood sample collection followed by euthanasia and tissue collection. Urine and plasma samples were kept frozen at −80° C. until analyzed. The kidneys were removed, washed with physiological saline and stored at −80° C. until used for RT-PCR analysis, thiobarbituric acid reactive substance (TBARS) measurement and caspase 3 activity assay. A part of the kidney also preserved in 10% buffered formalin for histological examination.
The levels of blood urea nitrogen (BUN) (BioAssay Systems, Hayward, Calif., USA) and serum creatinine (Cayman Chemical Company, Ann Arbor, Mich., USA) were measured spectrophotometrically using commercial kits. Urinary content of creatinine and protein were measured using commercial kits (Cayman Chemical Company, Ann Arbor, Mich., USA), and the activity of urinary N-acetyl-b-glucosaminidase (NAG) in the urine was measured by a kit from Diazyme (Diazyme Laboratories, Poway, Calif., USA). While urine content of kidney injury molecule-1 (KIM-1) was measured using ELISA (R&D Systems, Inc. Minneapolis, Minn., USA).
Malondialdehyde (MDA) is a thiobarbituric acid reactive substance (TBARS) that is formed as an end-product of lipid peroxidation and serves as an important index of oxidative stress. To determine the kidney MDA level, the rat kidney was homogenized with buffer containing 1.5% potassium chloride to obtain a 1:10 (w/v) whole kidney homogenate. Using a commercially available kit (Cayman Chemical Company, Ann Arbor, Mich., USA), MDA was measured spectrophotometrically after reaction with thiobarbituric acid. […]
Real-Time analysis was carried out to assess the expression of oxidative (gp91phox, NOX1, SOD1, SOD2, SOD3), inflammatory (TNF-α, IL-6, IL-1β), apoptotic (Bax, Bak, Bcl-2) and endoplasmic reticulum stress (GRP78, caspase 12) related genes in the kidney. Total RNA was isolated from kidney homogenate using TRIzol LS reagents (Invitrogen Life Technologies, Carlsbad, Calif., USA) according to the manufacturer's instructions. The isolated RNA was treated with RNase-free DNase (Invitrogen, Carlsbad, Calif., USA) to remove traces of genomic DNA contamination. […]

NCCIT cells = assay: Cell viability (alamar blue), cisplatin with concurrent EET-A; format: cell-based, human
Experimental: In this study, HEK293, U87MG, Hela cell-lines were obtained from the ATCC (Manassas, Va., USA) (HEK293, U87MG, Hela), and NCCIT was collected from Department of Pediatrics, UT Southwestern Medical Center at Dallas, Tex., USA. All cell lines were maintained in DMEM or RPIM with 10% fetal bovine serum and penicillin/streptomycin purchased from Life Technologies (Grand Island, N.Y., USA). Cisplatin was purchased from either Sigma (St. Louis, Mo., USA) or CalBiochem/EMD Biosciences (Billerica, Mass., USA). Cells were seeded in 96-well plates at 500 to 4,000 cells per well depends on cell type. […] Cell viability was measured by alamar blue assay using resazurin (Sigma Aldrich) according to the manufacturer's guidelines. Viability results were measured by fluorescence/absorbance in a 96-well plate reader from BMG Labtech (Cary, N.C., USA) and the IC50 was calculated by GraphPad Prism® software (GraphPad Software Inc, La Jolla, Calif., USA).

Structure (SMILES)	BUN ([3]; 10 mg/kg/d p.o.)	urinary NAG ([3]; 10 mg/kg/d p.o.)	plasma creatinine (PCr) ([3]; 10 mg/kg/d p.o.)	KIM-1 urinary excretion ([3]; 10 mg/kg/d p.o.)	cisplatin-induced proteinuria ([3]; 10 mg/kg/d p.o.)	reductions in renal mRNA expressions of inflammatory markers (TNF-α, IL-6, IL-1β) [3]	reduction in elevated renal expressions of GRP78 and caspase 12 mRNAs [3]	decrease in kidney expression of NOX1 and gp91phox mRNAs [3]	reduction in urinary excretion of NAG and KIM-1 [3]	reduction of cisplatin-induced proteinuria [3]	reductions in elevated serum creatinine and BUN [3]	also measured
CCCCCCC(=O)N(CCCCCOc1cccc2sc(NC(C)=O)nc12)C(C)C [Compound 30, N-(5-(2-Acetamidobenzo[d]thiazol-4-yloxy)pentyl)-N-isopropylheptanamide]												Vascular Relax. % (10 μM) (bovine coronary artery; 100% relaxation = basal pre-U-46619 tension): 96%; Vascular relaxation % relaxation (10 μM) (bovine coronary artery; Table 2): 96%; blood pressure after two weeks of treatment ([1]; 2 mg/d i.p. osmotic pump, vehicle 141±3.0): 129±2.0 mmHg; heart rate ([1]; 2 mg/d i.p., vehicle 331±17.0): 318±24.0 BPM; decrease in blood pressure compared to vehicle ([1]; two weeks treatment): 12 mmHg; blood pressure at end of two-week treatment ([2]; 2 mg/d i.p., vehicle 150±3.2): 107±2.0 mmHg; sodium excretion (natriuresis) ([2]; two weeks, vehicle 1.9±0.7): 2.7 ± 0.3 mmol/day; heart rate ([2]; two weeks, vehicle 396±25.0): 385±16.0 BPM
CCCCCNC(=O)NCCCC/C=C\CCCCCCC(=O)NC(CC(=O)[O-])C(=O)[O-].[Na+].[Na+] [EET-A, Sodium (S)-2-(13-(3-pentylureido)tridec-8(Z)-enamido)succinate]	108 ± 30 mg/dL	0.5±0.1 U/d	2.0 ± 0.2 mg/dL	85 ± 29 ng/day	33 ± 8 mg/day	40-60%	2-4 fold	2-3 folds	30-50%	≥ 40%	30-50%	kidney TBARS formation ([3]; 10 mg/kg/d p.o., after cisplatin, vehicle 16±2): 7 ± 1 µmol/g
CCCCCCC(=O)N(CCCCCOc1cccc2sc(NC(=O)C(C)(C)C)nc12)C(C)C [EET-B, N-Isopropyl-N-(5-(2-pivalamidobenzo[d]thiazol-4-yloxy)pentyl)heptanamide]	120 ± 33 mg/dL	0.6±0.2 U/d	1.4 ± 0.2 mg/dL	57 ± 13 ng/day	32 ± 3 mg/day	40-60%	2-4 fold	2-3 folds	30-50%	≥ 40%	30-50%	
N.N.[Cl][Pt][Cl] [cisplatin]												IC50 (NCCIT cells; read-out: IC50 for cisplatin, with 0 ng/ml EET-A): 2600 nM; IC50 (NCCIT cells; read-out: IC50 for cisplatin, with 1 ng/ml EET-A): 2550 nM; IC50 (NCCIT cells; read-out: IC50 for cisplatin, with 10 ng/ml EET-A): 2440 nM
